Measured values reported in ChEMBL document CHEMBL1201862, “PubChem BioAssay data set” (2004).
The source made the active and inactive calls.

Tests used:
[1] = Luminescence Cell-Based Dose Response HTS to Identify Inhibitors of Luciferase Translation or Activity in H4-C Neuroglioblastoma Cells. [Related pubchem assays: 1813 (Primary HTS), 1827 (Project Summary)]; type: functional
[2] = Luminescence Cell-Based Dose Response HTS to Identify Activators of Luciferase Translation or Activity in H4-C Neuroglioblastoma Cells. [Related pubchem assays: 1829 (Project Summary), 1814 (Primary HTS)]; type: functional
[3] = Luminescence Cell-Based Dose Retest to Confirm Activators of 5'UTR Stem-Loop Driven Alpha-Synuclein mRNA Translation in H4 Neuroglioblastoma Cells. [Related pubchem assays (depositor defined):AID1813, AID1829]; type: functional
[4] = Luminescence Cell-Based Dose Response HTS to Identify Activators of 5'UTR Stem-Loop Driven Prion Protein mRNA Translation in H4-C Neuroglioblastoma Cells. [Related pubchem assays: 1829 (Project Summary), 1814 (Primary HTS)]; type: functional
[5] = Luminescence Cell-Based Dose HTS Response to Identify Inhibitors of 5'UTR Stem-Loop Driven Prion Protein mRNA Translation in H4-C Neuroglioblastoma Cells. [Related pubchem assays (depositor defined):AID1814, AID1827]; type: functional
[6] = Luminescence Cell-Based Dose Confirmation HTS to Identify Inhibitors of 5'UTR Stem-Loop Driven Alpha-Synuclein mRNA Translation in H4 Neuroglioblastoma Cells. [Related pubchem assays: 1827 (Project Summary), 1813 (Primary HTS)]; type: functional
[7] = target: T1, RNA-binding protein pos-1 (Caenorhabditis elegans, UniProt G5EF15); experiment: inhibitors of POS-1/mex-3 RNA binding, dose response, biochemical, fluorescence polarization (AID 1964);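 also: purified POS-1 fused to maltose binding protein made in E. coli; potency of compounds blocking POS-1 binding to fluorescent RNA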
T1 sequence (G5EF15 whole entry): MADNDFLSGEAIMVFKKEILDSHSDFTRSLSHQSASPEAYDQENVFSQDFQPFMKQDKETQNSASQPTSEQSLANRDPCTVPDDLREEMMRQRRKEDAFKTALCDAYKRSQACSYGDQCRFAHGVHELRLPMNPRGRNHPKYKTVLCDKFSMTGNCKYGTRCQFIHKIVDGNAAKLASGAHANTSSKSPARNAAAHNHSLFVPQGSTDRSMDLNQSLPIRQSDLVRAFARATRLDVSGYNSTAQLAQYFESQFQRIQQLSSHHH

[8] = target: T2, Zinc finger protein mex-5 (Caenorhabditis elegans, UniProt Q9XUB2); experiment: MEX-5/TCR-2 RNA interaction inhibitors, dose response, biochemical, C. elegans, fluorescence polarization (AID 1960)
T2 sequence (Q9XUB2 whole entry): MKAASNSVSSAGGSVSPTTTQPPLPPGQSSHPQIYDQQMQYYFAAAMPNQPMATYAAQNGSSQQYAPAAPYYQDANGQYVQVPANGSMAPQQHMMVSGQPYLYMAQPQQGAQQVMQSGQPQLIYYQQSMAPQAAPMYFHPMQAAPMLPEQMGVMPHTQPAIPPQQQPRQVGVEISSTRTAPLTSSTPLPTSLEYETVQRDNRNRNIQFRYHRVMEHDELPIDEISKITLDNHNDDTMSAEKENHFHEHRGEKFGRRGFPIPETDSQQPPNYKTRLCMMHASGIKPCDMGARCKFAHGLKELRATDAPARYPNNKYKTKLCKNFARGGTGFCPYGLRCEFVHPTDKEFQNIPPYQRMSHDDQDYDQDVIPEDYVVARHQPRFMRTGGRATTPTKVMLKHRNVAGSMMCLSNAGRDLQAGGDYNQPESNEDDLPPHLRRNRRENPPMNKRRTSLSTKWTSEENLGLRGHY

Large T antigen = Large T antigen (Simian virus 40, UniProt P03070); type: functional, Betapolyomavirus macacae;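 also: Confirmatory-stage PubChem screen for compounds that inhibit SV40 T antigen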
Large T antigen, sequence (P03070 whole entry): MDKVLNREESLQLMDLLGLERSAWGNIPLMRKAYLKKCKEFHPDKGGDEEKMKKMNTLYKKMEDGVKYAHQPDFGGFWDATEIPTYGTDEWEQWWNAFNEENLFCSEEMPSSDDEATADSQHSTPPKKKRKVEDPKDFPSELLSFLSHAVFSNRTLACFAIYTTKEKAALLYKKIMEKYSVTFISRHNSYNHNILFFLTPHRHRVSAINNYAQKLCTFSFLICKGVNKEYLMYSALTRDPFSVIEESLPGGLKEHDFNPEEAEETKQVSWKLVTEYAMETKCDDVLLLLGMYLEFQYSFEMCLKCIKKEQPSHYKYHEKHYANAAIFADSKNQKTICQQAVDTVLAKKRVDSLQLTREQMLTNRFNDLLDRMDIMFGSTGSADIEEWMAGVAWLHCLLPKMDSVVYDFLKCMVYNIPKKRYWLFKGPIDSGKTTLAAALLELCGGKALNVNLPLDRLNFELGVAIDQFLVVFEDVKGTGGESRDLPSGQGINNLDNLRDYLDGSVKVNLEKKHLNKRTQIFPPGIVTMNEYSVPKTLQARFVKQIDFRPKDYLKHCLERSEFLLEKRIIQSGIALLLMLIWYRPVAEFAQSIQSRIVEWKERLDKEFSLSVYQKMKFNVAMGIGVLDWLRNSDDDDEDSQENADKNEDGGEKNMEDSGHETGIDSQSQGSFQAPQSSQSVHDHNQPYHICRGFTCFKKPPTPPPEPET

[9] = target: Intestinal-type alkaline phosphatase (Homo sapiens, UniProt P09923); experiment: activation of human intestinal alkaline phosphatase – biochemical, dose response (AID 488873); type: functional
[10] = target: Intestinal-type alkaline phosphatase (Mus musculus, UniProt P24822); experiment: mouse intestinal alkaline phosphatase activators, dose response, biochemical, luminescence, uHTS hits (AID 488783); type: functional
Intestinal-type alkaline phosphatase (Mus musculus, UniProt P24822), sequence (P24822 whole entry): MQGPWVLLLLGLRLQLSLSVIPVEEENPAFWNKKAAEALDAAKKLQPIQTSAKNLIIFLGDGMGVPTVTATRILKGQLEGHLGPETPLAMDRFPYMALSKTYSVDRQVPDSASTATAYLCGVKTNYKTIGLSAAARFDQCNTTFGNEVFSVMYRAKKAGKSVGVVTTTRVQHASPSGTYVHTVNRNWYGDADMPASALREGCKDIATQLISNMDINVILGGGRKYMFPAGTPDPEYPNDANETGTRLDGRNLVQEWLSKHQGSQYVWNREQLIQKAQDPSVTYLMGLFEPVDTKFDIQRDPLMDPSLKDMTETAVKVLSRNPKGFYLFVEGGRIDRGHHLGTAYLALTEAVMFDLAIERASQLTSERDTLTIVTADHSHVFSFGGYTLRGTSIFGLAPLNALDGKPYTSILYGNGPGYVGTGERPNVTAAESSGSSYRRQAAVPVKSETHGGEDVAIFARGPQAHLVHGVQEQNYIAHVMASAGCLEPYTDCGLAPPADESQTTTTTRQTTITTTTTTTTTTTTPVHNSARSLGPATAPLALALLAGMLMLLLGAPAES

[11] = target: T3, Alkaline phosphatase, tissue-nonspecific isozyme (Homo sapiens, UniProt P05186); experiment: TNAP enzyme activators, dose response, selectivity assay for mouse IAP activator project, biochemical, TNAP isozyme, mouse IAP uHTS hits (AID 488880); type: functional
T3 sequence (P05186 whole entry): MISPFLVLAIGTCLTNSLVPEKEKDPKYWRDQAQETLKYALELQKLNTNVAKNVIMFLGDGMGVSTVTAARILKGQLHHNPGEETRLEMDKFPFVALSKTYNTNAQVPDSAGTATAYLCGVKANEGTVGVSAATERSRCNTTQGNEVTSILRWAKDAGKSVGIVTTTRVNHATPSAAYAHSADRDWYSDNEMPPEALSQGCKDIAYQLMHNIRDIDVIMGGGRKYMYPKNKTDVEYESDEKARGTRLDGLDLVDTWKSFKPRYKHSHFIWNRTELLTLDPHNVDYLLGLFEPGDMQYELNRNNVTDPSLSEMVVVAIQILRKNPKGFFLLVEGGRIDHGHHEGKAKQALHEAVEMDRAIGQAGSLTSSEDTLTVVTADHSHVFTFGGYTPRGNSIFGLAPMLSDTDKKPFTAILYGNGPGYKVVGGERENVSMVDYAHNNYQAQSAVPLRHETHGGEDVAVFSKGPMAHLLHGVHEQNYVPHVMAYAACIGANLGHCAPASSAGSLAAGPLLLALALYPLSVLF

SUMO-activating enzyme [12] = target: T4, SUMO-activating enzyme (Homo sapiens, UniProt Q9UBT2); experiment: SUMOylation inhibitor hit validation, confirmation, SUMOylation inhibitor project, biochemical, AlphaScreen (AID 2018); type: functional
T4 sequence (Q9UBE0 whole entry): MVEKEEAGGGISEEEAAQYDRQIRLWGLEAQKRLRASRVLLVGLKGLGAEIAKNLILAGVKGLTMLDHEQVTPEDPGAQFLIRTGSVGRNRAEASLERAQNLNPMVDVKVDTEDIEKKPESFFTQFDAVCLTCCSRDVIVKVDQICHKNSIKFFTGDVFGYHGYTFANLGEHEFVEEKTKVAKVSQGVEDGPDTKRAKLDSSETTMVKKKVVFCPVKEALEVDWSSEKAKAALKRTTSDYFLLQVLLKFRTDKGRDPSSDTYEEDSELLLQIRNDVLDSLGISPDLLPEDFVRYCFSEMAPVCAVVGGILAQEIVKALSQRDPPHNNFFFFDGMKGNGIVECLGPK
T4 sequence (Q9UBT2 whole entry): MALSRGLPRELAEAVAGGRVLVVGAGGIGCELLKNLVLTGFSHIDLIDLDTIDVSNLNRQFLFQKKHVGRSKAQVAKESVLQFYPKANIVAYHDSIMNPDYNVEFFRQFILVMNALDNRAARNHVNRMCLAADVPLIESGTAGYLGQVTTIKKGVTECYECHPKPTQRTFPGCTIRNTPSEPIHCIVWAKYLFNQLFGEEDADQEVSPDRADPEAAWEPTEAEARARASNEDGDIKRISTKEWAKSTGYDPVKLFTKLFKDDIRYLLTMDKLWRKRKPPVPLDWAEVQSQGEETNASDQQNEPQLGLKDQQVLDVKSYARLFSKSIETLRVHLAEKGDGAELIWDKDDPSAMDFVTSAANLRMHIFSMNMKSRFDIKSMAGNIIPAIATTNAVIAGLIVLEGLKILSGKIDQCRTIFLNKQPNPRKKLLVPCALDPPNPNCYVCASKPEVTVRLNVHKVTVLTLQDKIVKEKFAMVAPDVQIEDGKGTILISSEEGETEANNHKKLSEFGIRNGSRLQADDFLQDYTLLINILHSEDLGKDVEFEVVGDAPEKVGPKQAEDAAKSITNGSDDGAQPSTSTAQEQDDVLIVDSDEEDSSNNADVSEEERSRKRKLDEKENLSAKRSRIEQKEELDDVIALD

Estrogen receptor [13] = target: T5, Estrogen receptor (Homo sapiens, UniProt P03372);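 also: potency for inhibiting coactivator peptide recruitment to the receptor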
T5 sequence (P03372 whole entry): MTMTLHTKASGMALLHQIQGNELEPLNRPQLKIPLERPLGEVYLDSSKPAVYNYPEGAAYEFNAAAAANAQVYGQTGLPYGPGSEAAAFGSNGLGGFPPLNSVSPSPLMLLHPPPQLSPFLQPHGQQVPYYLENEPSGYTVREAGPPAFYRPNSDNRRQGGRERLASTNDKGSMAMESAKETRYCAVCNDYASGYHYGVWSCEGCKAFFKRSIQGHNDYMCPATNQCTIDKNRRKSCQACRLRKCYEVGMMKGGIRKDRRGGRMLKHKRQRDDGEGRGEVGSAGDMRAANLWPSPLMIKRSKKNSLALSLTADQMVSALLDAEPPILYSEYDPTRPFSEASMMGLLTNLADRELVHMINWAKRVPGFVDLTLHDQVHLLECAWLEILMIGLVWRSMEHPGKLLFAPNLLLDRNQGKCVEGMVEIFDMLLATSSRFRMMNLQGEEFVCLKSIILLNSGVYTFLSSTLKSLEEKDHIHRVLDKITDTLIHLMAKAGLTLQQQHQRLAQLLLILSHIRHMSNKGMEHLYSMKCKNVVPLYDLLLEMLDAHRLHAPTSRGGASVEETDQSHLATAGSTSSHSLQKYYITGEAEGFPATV

SUMO-activating enzyme [14] = target: T4, SUMO-activating enzyme; experiment: inhibitors of in vitro SUMOylation cascade, primary screen, biochemical, HTRF, uHTS (AID 2006); type: protein-complex assay
Estrogen receptor [15] = target: T5, Estrogen receptor; experiment: potentiators of ERα–SRC-1 coactivator binding, dose response, biochemical, TR-FRET, ERα LBD (AID 737)
[16] = target: T6, G-protein coupled receptor 55 (Homo sapiens, UniProt Q9Y2T6); experiment: GPR55 agonists via beta-arrestin recruitment, primary screen, imaging, U2OS cells, beta-arrestin-GFP redistribution (AID 1961); type: functional
T6 sequence (Q9Y2T6 whole entry): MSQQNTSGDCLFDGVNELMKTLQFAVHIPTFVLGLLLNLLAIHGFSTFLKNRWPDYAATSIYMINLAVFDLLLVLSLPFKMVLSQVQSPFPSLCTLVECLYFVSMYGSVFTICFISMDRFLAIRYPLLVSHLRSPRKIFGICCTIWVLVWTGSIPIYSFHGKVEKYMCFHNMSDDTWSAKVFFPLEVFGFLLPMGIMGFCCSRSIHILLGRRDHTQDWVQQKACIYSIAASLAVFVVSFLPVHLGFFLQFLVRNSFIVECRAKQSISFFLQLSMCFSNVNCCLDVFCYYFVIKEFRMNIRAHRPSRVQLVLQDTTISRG

Cannabinoid receptor 2 [17] = target: T7, Cannabinoid receptor 2 (Homo sapiens, UniProt P34972); experiment: SAR analysis of antagonists of the Cannabinoid Receptor 2 using an Image-Based Assay - Set 2. [Related pubchem assays (depositor defined):AID1961, AID1965]; type: functional
T7 sequence (P34972 whole entry): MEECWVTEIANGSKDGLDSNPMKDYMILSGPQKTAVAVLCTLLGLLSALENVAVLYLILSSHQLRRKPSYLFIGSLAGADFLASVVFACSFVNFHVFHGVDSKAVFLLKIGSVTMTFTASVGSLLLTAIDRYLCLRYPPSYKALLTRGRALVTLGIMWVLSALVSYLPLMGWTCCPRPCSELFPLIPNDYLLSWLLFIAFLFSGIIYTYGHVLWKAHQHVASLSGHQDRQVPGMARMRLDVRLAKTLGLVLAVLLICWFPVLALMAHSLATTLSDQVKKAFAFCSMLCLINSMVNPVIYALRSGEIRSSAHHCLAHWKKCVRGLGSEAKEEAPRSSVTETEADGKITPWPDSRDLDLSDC

Cannabinoid receptor 2 [18] = target: T7, Cannabinoid receptor 2; experiment: SAR analysis of agonists of the Cannabinoid Receptor 2 using an Image-Based Assay - Set 2. [Related pubchem assays (depositor defined):AID1961, AID1965]; type: functional
[19] = target: T6, G-protein coupled receptor 55; experiment: SAR analysis of selective Agonists of GPR55 using an Image-Based Assay. [Related pubchem assays (depositor defined):AID1961, AID1965]; type: functional
Cannabinoid receptor 1 = Cannabinoid receptor 1 (Homo sapiens, UniProt P21554); experiment: SAR analysis of antagonists of the Cannabinoid Receptor 1 using an Image-Based Assay. [Related pubchem assays (depositor defined):AID1961, AID1965]; type: functional
Cannabinoid receptor 1, sequence (P21554 whole entry): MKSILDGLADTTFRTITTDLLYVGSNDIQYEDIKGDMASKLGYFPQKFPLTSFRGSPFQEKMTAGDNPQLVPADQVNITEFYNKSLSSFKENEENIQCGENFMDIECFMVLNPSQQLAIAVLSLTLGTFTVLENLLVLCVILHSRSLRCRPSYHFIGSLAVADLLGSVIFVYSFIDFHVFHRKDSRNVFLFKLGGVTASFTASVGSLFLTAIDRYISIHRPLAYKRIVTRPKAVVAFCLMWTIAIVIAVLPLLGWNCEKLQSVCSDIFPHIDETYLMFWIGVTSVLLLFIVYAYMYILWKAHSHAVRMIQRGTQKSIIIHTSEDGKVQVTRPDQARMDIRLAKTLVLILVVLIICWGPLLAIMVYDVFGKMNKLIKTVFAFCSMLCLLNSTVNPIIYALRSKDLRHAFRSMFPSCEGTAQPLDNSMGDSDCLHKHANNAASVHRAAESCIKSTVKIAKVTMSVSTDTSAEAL

Mu-type opioid receptor [20] = target: T8, Mu-type opioid receptor (Homo sapiens, UniProt P35372); experiment: SAR Analysis of Antagonists of the MOR Receptor using an Image-Based Assay - Set 2. [Related pubchem assays (depositor defined):AID1777, AID1785, AID1786, AID1966, AID2133, AID2136, AID2284, AID2285, AID2420]; type: functional
T8 sequence (P35372 whole entry): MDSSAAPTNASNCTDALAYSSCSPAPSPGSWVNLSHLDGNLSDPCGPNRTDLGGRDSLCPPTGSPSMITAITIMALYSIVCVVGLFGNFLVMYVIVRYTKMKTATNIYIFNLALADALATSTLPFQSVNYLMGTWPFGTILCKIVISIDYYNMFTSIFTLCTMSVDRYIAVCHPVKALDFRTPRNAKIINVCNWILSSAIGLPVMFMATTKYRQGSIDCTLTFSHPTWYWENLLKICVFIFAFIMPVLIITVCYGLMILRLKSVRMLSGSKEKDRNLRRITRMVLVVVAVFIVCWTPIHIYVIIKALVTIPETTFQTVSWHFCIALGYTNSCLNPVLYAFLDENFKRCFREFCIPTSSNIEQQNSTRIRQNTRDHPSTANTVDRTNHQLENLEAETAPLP

[21] = target: T9, Kappa-type opioid receptor (Homo sapiens, UniProt P41145); experiment: SAR analysis of Antagonists of the Kappa Opioid Receptor (KOR) using an Image-Based Assay - Set 2. [Related pubchem assays (depositor defined):AID1777, AID1785, AID1786, AID1966, AID2133, AID2136, AID2284, AID2285, AID2348]; type: functional
T9 sequence (P41145 whole entry): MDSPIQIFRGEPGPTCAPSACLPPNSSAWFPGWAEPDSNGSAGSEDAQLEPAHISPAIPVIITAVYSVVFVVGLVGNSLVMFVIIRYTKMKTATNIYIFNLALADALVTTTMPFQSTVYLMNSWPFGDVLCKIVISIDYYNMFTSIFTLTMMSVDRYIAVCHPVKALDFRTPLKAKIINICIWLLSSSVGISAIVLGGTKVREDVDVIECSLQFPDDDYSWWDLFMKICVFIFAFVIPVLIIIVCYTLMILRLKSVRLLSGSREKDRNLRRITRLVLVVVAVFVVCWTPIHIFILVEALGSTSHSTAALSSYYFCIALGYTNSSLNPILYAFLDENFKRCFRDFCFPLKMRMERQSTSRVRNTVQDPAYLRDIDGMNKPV

Mu-type opioid receptor [22] = target: T8, Mu-type opioid receptor; experiment: SAR Analysis of Agonists of the MOR Receptor using an Image-Based Assay - Set 2. [Related pubchem assays (depositor defined):AID1777, AID1785, AID1786, AID1966, AID2133, AID2136, AID2284, AID2285, AID2352]; type: functional
[23] = target: T9, Kappa-type opioid receptor; experiment: SAR analysis of small molecule agonists of the kappa opioid receptor via a luminescent beta-arrestin assay - Set 2. [Related pubchem assays (depositor defined):AID1777, AID1785, AID1786, AID1966, AID2133, AID2136, AID2284, AID449737]; type: functional
[24] = target: T10, Delta-type opioid receptor (Homo sapiens, UniProt P41143); experiment: SAR Analysis of Agonists of the DOR Receptor using an Image-Based Assay - Set 2. [Related pubchem assays (depositor defined):AID1777, AID1785, AID1786, AID1966, AID2133, AID2136, AID2284, AID2285, AID2370]; type: functional
T10 sequence (P41143 whole entry): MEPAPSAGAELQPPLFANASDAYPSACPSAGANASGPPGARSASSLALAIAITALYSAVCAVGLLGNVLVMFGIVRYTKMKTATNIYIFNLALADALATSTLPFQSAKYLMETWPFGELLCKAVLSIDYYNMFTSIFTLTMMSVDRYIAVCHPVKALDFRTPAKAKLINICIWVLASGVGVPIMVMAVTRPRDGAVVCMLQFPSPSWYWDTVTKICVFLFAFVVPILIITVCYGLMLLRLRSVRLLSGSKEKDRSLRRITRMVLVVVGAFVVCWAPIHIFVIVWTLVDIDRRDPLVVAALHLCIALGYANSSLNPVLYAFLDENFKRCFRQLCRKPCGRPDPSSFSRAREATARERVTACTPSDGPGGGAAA

[25] = target: T10, Delta-type opioid receptor; experiment: SAR Analysis of Antagonists of the DOR Receptor using an Image-Based Assay - Set 2. [Related pubchem assays (depositor defined):AID1777, AID1785, AID1786, AID1966, AID2133, AID2136, AID2284, AID2285, AID2357]; type: functional
[26] = target: T9, Kappa-type opioid receptor; experiment: SAR analysis of Agonists of the Kappa Opioid Receptor (KOR) using an Image-Based Assay - Set 2. [Related pubchem assays (depositor defined):AID1777, AID1786, AID1966, AID2133, AID2136, AID2284, AID2285, AID2359]; type: functional
[27] = target: Voltage-dependent T-type calcium channel subunit alpha-1H (Homo sapiens, UniProt O95180); experiment: Cav3.2 T-type channel inhibitors, synthesized analogs, SAR follow-up, cell-based, synthetic library set 2, HEK293 HH8, Fluo-4 (AID 493023); type: functional

For `CC[n+]1c(/C=C/C=C/c2ccc(N(C)C)cc2)sc2ccccc21`, the EC50 [1] was 2.69 µM (active), the EC50 [2] was 2.69 µM (inconclusive) and the EC50 [3] was 26.3 µM (inconclusive). For the same compound, the EC50 [4] was 1.54 µM (inconclusive), the EC50 [5] was 1.54 µM (active) and the EC50 [6] was 26.3 µM (active).
With `Oc1ccc(-c2csc(Nc3ccccn3)n2)cc1O` the EC50 [7] was 74.1 µM (active), the EC50 [8] was 17.3 µM (active) and the IC50 (Large T antigen) was 51.7 µM (active). The EC50 [9] was 48.7 µM (active), the EC50 [10] was 24.9 µM (active) and the EC50 [11] was 47.9 µM (active).
For `O=c1cc(CSc2nnnn2-c2ccccc2)nc(Nc2ccc(F)cc2)[nH]1`, the IC50 (SUMO-activating enzyme [12]) was 11.5 µM (active), the IC50 (Estrogen receptor [13]) was > 50 µM (not active) and the IC50 (SUMO-activating enzyme [14]) was 6.47 µM (active). The EC50 (Estrogen receptor [15]) was 12.5 µM (active).
For `COc1ccc(S(=O)(=O)N2CCOCC2)cc1NC(=O)c1cc2c(s1)CCCC2`, the EC50 [16] was 524 nM (active), the IC50 (Cannabinoid receptor 2 [17]) was > 32 µM (inactive) and the EC50 (Cannabinoid receptor 2 [18]) was > 32 µM (inactive). For the same compound, the EC50 [19] was 305 nM (active) and the IC50 (Cannabinoid receptor 1) was > 32 µM (inactive).
With `Cc1ccc(CSc2nnc(-c3ccccn3)n2Cc2ccco2)cc1` the IC50 (Mu-type opioid receptor [20]) was > 32 µM (inactive), the IC50 [21] was > 32 µM (inactive) and the EC50 (Mu-type opioid receptor [22]) was > 32 µM (inactive). The EC50 [23] was 6.21 µM (active), the EC50 [24] was > 32 µM (inactive) and the IC50 [25] was > 32 µM (inactive). The EC50 [26] was 5.21 µM (active).
With `O=C(N[C@@H]1CCCN(Cc2ccccc2)C1)c1cc(Cl)cc(Cl)c1` the EC50 [27] was 10 µM (active).
